Data set [1] deals with patients with established primary hypoparathyroidism (PHP). The data set can be described thus: Phase IIa multi-center clinical study of oral teriparatide, 4 times per day for 16 weeks. The data set is classed as in vivo, human. Here is the method: A Phase IIa multi-center clinical study of an exemplary oral formulation comprising teriparatide was conducted on 19 patients with established primary hypoparathyroidism (PHP) (for more than one year). PHP was postsurgical in 13 patients, autoimmune in 5 patients and hereditary in 1 patient.
The average age of the patients was 44.5 years (range 20.3 to 71 years). At enrollment, the patients were treated with an average of 3.64 grams calcium supplement per day (range 1-10.8 grams per day) and 1.1 μg alphacalcidol supplement per day (range 0-2 μg per day). Patients with low hemoglobin, estimated glomerular filtration rate (eGFR) of less than 40 ml per minute per 1.73 m^2, liver enzymes at least 3 times the upper limit, drug or alcohol abuse, kidney/urinary tract stones, 25-hydroxycholecalciferol (25(OH)D) serum levels of less than 20 ng/ml or BMI outside the range of […] were excluded from the study.
The formulation was composed of teriparatide (750 μg per dose), SNAC, soybean trypsin inhibitor and magnesium stearate.
Teriparatide was administered 4 times per day, prior to meals, for 16 weeks. Following the first two doses, plasma samples were taken for pharmacokinetic analysis by determining teriparatide serum levels according to procedures described in Example 1. On the first day of treatment during follow up visits at the end of weeks 1, 2, 3, 4, 6, 8, 10, 12 and 16, serum calcium, phosphorus, albumin, and creatinine were evaluated, and dose adjustment of supplemental calcium medications was performed based on albumin adjusted calcium (ACa) levels. 24 hour urine samples were collected at the end of weeks 8 and 16. Quality of Life was (QoL) was monitored using a standard questionnaire.

Data set [2] can be described thus: Open label comparative pharmacokinetic study: oral teriparatide tablet with water or sodium bicarbonate solution. The data set is classed as in vivo, human. The following applies: 0.75 mg oral tablet with 150 ml of 3 mg/ml sodium bicarbonate solution vs 150 ml water; ten healthy volunteers; FIG. 25. The protocol: An open label comparative pharmacokinetic study was performed on ten healthy volunteers. On different visits, each volunteer received the same oral tablet containing 0.75 mg of teriparatide, a recombinant form of parathyroid hormone (1-34) (PTH(1-34)). In the first visit, the tablet was administered with 150 ml water, whereas in the second visit the tablet was administered with 150 ml of 3 mg/ml sodium bicarbonate aqueous solution.
The formulation was composed of teriparatide (0.75 mg), SNAC (sodium 8-N-(2-hydroxybenzoyl) aminocaprylate), soybean trypsin inhibitor (SBTI) and a small amount of magnesium stearate.
Tablets were administered in the morning after an 8-hour overnight fast. At each visit a standard meal was provided 3 hours after drug administration. […] There was a two week period between the two visits.
To determine PTH(1-34) concentrations, blood samples were drawn and PTH(1-34) levels were measured using an IDS-iSYS automated assay, using procedures described in Example 1 hereinabove. Relative absorption was determined based on the AUC (area under curve) parameter.

Data set [3] can be described thus: Phase I clinical study: plasma PTH(1-34) after oral teriparatide tablets vs subcutaneous injection. The data set is classed as in vivo, human. The settings on record: healthy volunteers, FIG. 1. Here is the method:
A Phase I clinical study of exemplary oral formulations comprising teriparatide (parathyroid hormone (1-34)) was conducted at the Hadassah Clinical Research Center. 42 healthy volunteers were included throughout the study.
The formulation was composed of teriparatide (200, 400, 680, 1400 or 1800 μg), SNAC (sodium 8-N-(2-hydroxybenzoyl) aminocaprylate), soybean trypsin inhibitor and magnesium stearate.
Tablets were administered in the morning after an 8-hour overnight fast and immediately followed by 150 ml of water. At each visit a standard meal was provided 3 hours after drug administration.
To determine parathyroid hormone(1-34) concentrations, blood samples (4 ml each) were drawn via an indwelling catheter from the forearm vein at predetermined time points. The cannula was flushed with 1.5 ml normal saline after each sampling. In addition, to avoid sample dilution, 1 ml of blood was drawn and discarded before the next sample. The blood samples were taken at following times: baseline (predose), 15 minutes, 30 minutes, 45 minutes, 60 minutes, 75 minutes, 90 minutes, 105 minutes, 2 hours, 3 hours, 4 hours and 5 hours post-administration. Each blood sample was collected into a single tube containing EDTA (ethylenediaminetetraacetic acid) and placed on ice. […] PTH levels were measured using an IDS-iSYS automated assay for the measurement of intact PTH in human plasma or serum. […]

Data set [4] is described as follows: Phase IIa study: teriparatide serum levels after oral dosing before and after a meal. The data set is classed as in vivo, human. The settings on record: second administration on day 1 vs empty stomach. The protocol:
To determine parathyroid hormone(1-34) concentrations, blood samples (4 ml each) were drawn via an indwelling catheter from the forearm vein at predetermined time points. The cannula was flushed with 1.5 ml normal saline after each sampling. In addition, to avoid sample dilution, 1 ml of blood was drawn and discarded before the next sample. The blood samples were taken at following times: baseline (predose), 15 minutes, 30 minutes, 45 minutes, 60 minutes, 75 minutes, 90 minutes, 105 minutes, 2 hours, 3 hours, 4 hours and 5 hours post-administration. Each blood sample was collected into a single tube containing EDTA (ethylenediaminetetraacetic acid) and placed on ice. Within 15 minutes of blood collection, samples were centrifuged for 10 minutes at 4° C. […] PTH levels were measured using an IDS-iSYS automated assay for the measurement of intact PTH in human plasma or serum.
Teriparatide was administered 4 times per day, prior to meals, for 16 weeks. […] On the first day of treatment during follow up visits at the end of weeks 1, 2, 3, 4, 6, 8, 10, 12 and 16, serum calcium, phosphorus, albumin, and creatinine were evaluated, and dose adjustment of supplemental calcium medications was performed based on albumin adjusted calcium (ACa) levels. […] Quality of Life was (QoL) was monitored using a standard questionnaire.

In data set [5] the test system is hypoparathyroidism. The settings on record: cited from earlier work.
Data set [6] concerns plasma levels of cAMP, a known marker of PTH activity. Briefly: Phase I clinical study: plasma cAMP as marker of PTH activity. The data set is classed as in vivo, human. The settings on record: oral 680 μg and subcutaneous 20 μg teriparatide; FIG. 3. The protocol: In addition, plasma levels of cAMP, a known marker of PTH activity, were determined in order to confirm biological activity of administered PTH. cAMP plasma levels were measured following oral administration of 680 μg teriparatide or subcutaneous injection of 20 μg teriparatide, as described hereinabove.

A short description of data set [7]: Release of SNAC from tablets with or without sodium bicarbonate in simulated gastric buffer. In kind it is physicochemical. The settings on record: tablet with 100 mg sodium bicarbonate vs without; simulated gastric buffer pH 2.0, 37° C., 50 rotations per minute; FIG. 24. Here is the method:
The tablets were in a form of a homogeneous mixture. Each tablet formulation was subjected to a dissolution test in 100 ml of simulated gastric buffer (without pepsin), pH 2.0, at 37° C., according to USP 23 Apparatus 2 (paddle) with 50 rotations per minute. The amount of released SNAC in each sample was determined chromatographically, using an HPLC apparatus with Cosmosil™ 5 C18-MS-II (4.6 ID×250 mm) column. Mobile phase consisted of 50% acetonitrile and 50% phosphoric acid solution (0.1%). Flow rate was 1 ml/minute and injection volume was 25 μl. Amount of released SNAC was calculated as a percentage of the amount of SNAC in the formulation.

[8] abbreviates: patient, 16-week treatment, FIG. 8.

The structures appear in SMILES notation.

For `CC[C@H](C)[C@H](NC(=O)[C@H](CCC(=O)O)NC(=O)[C@H](CO)NC(=O)[C@@H](NC(=O)[C@@H](N)CO)C(C)C)C(=O)N[C@@H](CCC(N)=O)C(=O)N[C@@H](CC(C)C)C(=O)N[C@@H](CCSC)C(=O)N[C@@H](Cc1cnc[nH]1)C(=O)N[C@@H](CC(N)=O)C(=O)N[C@@H](CC(C)C)C(=O)NCC(=O)N[C@@H](CCCCN)C(=O)N[C@@H](Cc1cnc[nH]1)C(=O)N[C@@H](CC(C)C)C(=O)N[C@@H](CC(N)=O)C(=O)N[C@@H](CO)C(=O)N[C@@H](CCSC)C(=O)N[C@@H](CCC(=O)O)C(=O)N[C@@H](CCCN=C(N)N)C(=O)N[C@H](C(=O)N[C@@H](CCC(=O)O)C(=O)N[C@@H](Cc1c[nH]c2ccccc12)C(=O)N[C@@H](CC(C)C)C(=O)N[C@@H](CCCN=C(N)N)C(=O)N[C@@H](CCCCN)C(=O)N[C@@H](CCCCN)C(=O)N[C@@H](CC(C)C)C(=O)N[C@@H](CCC(N)=O)C(=O)N[C@@H](CC(=O)O)C(=O)N[C@H](C(=O)N[C@@H](Cc1cnc[nH]1)C(=O)N[C@@H](CC(N)=O)C(=O)N[C@@H](Cc1ccccc1)C(=O)O)C(C)C)C(C)C` [teriparatide], the “urinary calcium, margin below the upper limit of normal” value in data set [1] (3 subjects with sustained elevations) is listed as “more than 30%”. In addition, in data set [1] (13 subjects with sustained decrease), the “average decrease in urinary calcium” value is 34%. The urinary calcium in data set [1] (13 subjects with sustained decrease, from 209 mg per 24 hours) is 136 mg per 24 hours. The “serum phosphorus after each dose, range” value in data set [1] (60 minutes after oral dose, throughout 16 weeks) is 2.9 to 5.2 mg/dL. For the same molecule, the “serum phosphorus, average level after each dose” value in data set [1] (60 minutes after oral dose, throughout 16 weeks, p<0.02, FIG. 5) came out at 4.3 mg/dL. Besides, the “pre-dose serum phosphorus levels” value in data set [1] (FIG. 5) is recorded as “reduced following 2 weeks of treatment”. For the same molecule, the “reduction of calcium intake” value in data set [1] (after 16 weeks, relative to baseline) turned out to be 1278 ± 880 mg. Moreover, in data set [1] (after 16 weeks, relative to baseline, FIG. 4), the “average reduction of calcium intake” value is 37%. Besides, the calcium intake in data set [1] (after 16 weeks, baseline 3692 mg) was 2414 mg. Also, the “subjects with urinary calcium above the normal range” value in data set [1] (at the end of 16 weeks, subjects who completed the study) is given as “one of the 17”. For the same molecule, the “albumin adjusted calcium, range” value in data set [1] (during treatment, baseline range 7.2-8.99) was 6.97-9.14 md/dL. For the same molecule, in data set [1] (maintained during treatment while calcium intake was decreased, baseline 7.92), the “albumin adjusted calcium, mean level” value is given as 8.15 mg/dL. In addition, the related adverse events entry in data set [1] (oral 750 μg per dose, 4 times per day, 16 weeks, 17 subjects completed) is “no related adverse events”. Moreover, the safety and tolerability result in data set [1] (oral 750 μg per dose, 4 times per day, 16 weeks, 17 subjects completed, over 8000 doses) is “safe and well tolerated”. Further, in data set [1] (setting [8]), the “reduction of calcium intake, sample case” value is “over 50%” and the “reduction of urinary calcium levels, sample case” value is on record as “over 50%”. Moreover, in data set [1] (patient, end of week 4, baseline 32.2 ng/ml, constant alphacalcidol), the “total serum levels of 25-hydroxycholecalciferol (25(OH)D), sample case” value was found to be 36.7 ng/mL. In data set [1] (patient, FIG. 9), the “ACa levels, sample case” value was “gradually increased” and the “serum phosphate levels, sample case” value was “gradually decreased”. Besides, the “Quality of Life health score, sample case” value in data set [1] (patient, increased from 70) was 80. Besides, the “increase in absorption of PTH(1-34) (AUC)” value in data set [2] is listed as “about 35%”. Further, the “Cmax of PTH(1-34) following oral administration, relation to dose” value in data set [3] (oral doses 200, 400, 680, 1400 or 1800 μg) is reported as “proportional to the dose”. Further, the “oral dose of teriparatide providing a Cmax equivalent to that of subcutaneous administration of 20 μg teriparatide” value in data set [3] (oral tablets with SNAC, soybean trypsin inhibitor, magnesium stearate, 8-hour overnight fast) is “roughly 750 μg”. Further, in data set [4] (patient, FIG. 10), the “PTH(1-34) serum levels, after a meal relative to prior to a meal, sample case” value is on record as “about half”. Moreover, the “PTH(1-34) serum levels, after a meal relative to prior to a meal” value in data set [4] (FIGS. 6 and 7) is “about half”. Besides, the “reduction in the PTH dose needed to maintain normal serum calcium levels” value in data set [5] (pump vs twice-daily subcutaneous injection, from 37 μg per day to 13 μg per day) is 65%. The “reduction in urine calcium” value in data set [5] (subcutaneous infusion by insulin pump vs twice-daily subcutaneous injection) is “more than 50%”. Besides, the “plasma cAMP levels” value in data set [6] is recorded as “increased plasma cAMP levels to a similar degree”.
For `O=C(O)CCCCCCCNC(=O)c1ccccc1O` [SNAC, sodium 8-N-(2-hydroxybenzoyl)aminocaprylate], the “dissolution of SNAC from tablets, effect of sodium bicarbonate” value in data set [7] is “considerably enhanced the dissolution”.

The values above are taken from patent US20240181020A1, “TREATMENT OF HYPOPARATHYROIDISM” (Entera Bio Ltd., priority 2015, published 2024).
